Measured values reported in US11492594B2, “Method for producing engineered heart muscle (EHM)” (GEORG-AUGUST-UNIVERSITÄT GÖTTINGEN STIFTUNG ÖFFENTLICHEN …, priority 2013, dated 2022).

Columns and labels:
[1] = tested on: hEHM (human engineered heart muscle); test: Spontaneous contraction frequency of hEHM by light microscopy; type: cell-based; settings: n=6
Method: (§1) The inventors analyzed force of contraction and twitch kinetics (contraction time: time from 50% to maximal contraction; relaxation time: time from maximal contraction to 50% relaxation) under isometric conditions as described before (Zimmermann et al. Circ Res 90: 223-230 (2002), incorporated herein by reference). Contraction frequency was assessed by light microcopy (unstimulated spontaneous contractions) immediately after removing EHMs from the incubator.

[2] = tested on: hEHM (human engineered heart muscle); test: hEHM formation and contractile force with varied matrix, basal medium and supplements; type: cell-based; settings: for force-generation of hEHM: 10 ng/ml added to serum-free medium, hES2; for hEHM formation and function by matrix component: contractile force at 2 mmol/L extracellular calcium
Method: The inventors constructed hEHMs using a modified EHM-engineering protocol (Zimmermann et al. Circ Res 90: 223-230 (2002), incorporated herein by reference). Briefly, EHMs (reconstitution volume: 450 μl) were prepared by pipetting a mixture containing freshly dispersed ESC-derivatives (1×10^4-15×10^6 cells in Iscove-Medium with 20% fetal calf serum, 1% non-essential amino acids, 2 mmol/l glutamine, 100 μmol/l β-mercaptoethanol, 100 U/ml penicillin, and […]), pH-neutralized collagen type I from rat tails (0.4 mg/EHM), Matrigel™ (10% v/v; Becton Dickenson or tebu), and concentrated serum-containing culture medium (2× DMEM, 20% horse serum, 4% chick embryo extract, 200 U/ml penicillin, and […] streptomycin) in circular molds (inner/outer diameter: 2/4 mm; height: 5 mm) (Table 1). hEHM condensed quickly within the casting molds and were transferred onto static stretch devices (110% of slack length) (Zimmermann et al. Nat Med 12: 452-458 (2006), incorporated herein by reference) on culture day 3. Medium was changed every other day. hEHM culture under stretch was performed for 7 days.
A protocol with reduced xenogenic components (Matrix protocol, Table 1) was established to enable pre-GMP hEHM. Cells were reconstituted in a mixture of pH-neutralized bovine collagen (Devros Medical, 0.4 mg/EHM), concentrated serum-containing culture medium (2× DMEM, 40% fetal calf serum, 200 U/ml penicillin, and […] streptomycin) and cultured in Iscove-Medium with 20% fetal calf serum, 1% non-essential amino acids, 2 mmol/l glutamine, 0.3 mmol/l ascorbic acid, 100 μmol/l β-mercaptoethanol, 100 U/ml penicillin, and 100 μg/ml streptomycin.
To generate fully defined, serum-free EHM cells were reconstituted in a mixture of pH-neutralized bovine collagen (Devros Medical, 0.4 mg/EHM), concentrated serum-free medium medium (2× DMEM, 8% B27, 200 U/ml penicillin, and […] streptomycin) and cultured in Iscove-Medium with full 4% B27, 1% non-essential amino acids, 2 mmol/l glutamine, 0.3 mmol/l ascorbic acid, 20 ng/ml IGF-1, 10 ng/ml FGF2, 10 ng/ml VEGF, 5 ng/ml TGFb1 (culture day 0-3 only), and 100 U/ml penicillin, and 100 μg/ml streptomycin (Serum-free protocol, Table 1). B27 supplement contains vitamins (Biotin, DL Alpha Tocopherol, Acetate DL Alpha-Tocopherol, Vitamin A), proteins and enzymes (BSA, fatty acid free Fraction V, Catalase, Human Recombinant Insulin, Human Transferrin, Superoxide Dismutase), and other cell-supporting components (Corticosterone, D-Galactose, Ethanolamine, Glutathione (reduced), L-Carnitine, Linoleic Acid, Linolenic Acid, Progesterone, Putrescine, Sodium Selenite, and T3 (triodo-I-thyronine). Where indicated full B27 (Invitrogen, A1486701) was compared to B27 without antioxidants (Invitrogen, #10889038) and B27 without insulin (Invitrogen, #0050129SA). B27 supplement was replaced by a custom-made supplement consisting of Albumin, Transferrin, Ethanolamine, Sodium selenite, L-Carnitine HCl, Hydrocortisone, Fatty acid supplement, and Triiodo-L-thyronine (Table 2).
as §1

[3] = tested on: hEHM (human engineered heart muscle); test: Isometric force of contraction and twitch kinetics of hEHM; type: cell-based
Method: as §1

[4] = tested on: human embryoid body (EB) cultures; test: Flow cytometry-based screen of media and supplements in 3D human embryoid body (EB) cultures; settings: for cell death (sub-G1 fraction): compared to serum free medium without the factor or to other media, growth factors at above EC50 concentrations; for cardiomyocyte actinin expression (CM maturation): mean actinin fluorescence per cardiomyocyte
Method: EBs cultured in different medium conditions were made into a single cell suspension as described above. Cells were fixed in 70% ice cold ethanol under constant mixing. The cells were stained for sarcomeric actinin (Sigma) to label cardiomyocytes and DAPI to analyze nuclear DNA content and to exclude cell doublets. Cells were run on a LSRII Cytometer (BD). At least 10,000 live cells were analyzed. The following parameters were then analyzed, (1) cell death (percentage of cells in the sub-G1 fraction), (2) cardiomyocyte and non-myocyte percentage (Actinin-positive and negative cells, respectively) (3) Cardiomyocte maturation (mean actinin fluorescence), (4) cardiomyocyte and (5) non-myocyte size (based on sideward scatter area, SSC-A).

[5] = compared to serum free medium without the factor

## CC(C)Cn1c(=O)n(C)c(=O)c2[nH]cnc21 [IBMX, 3-isobutyl-1-methylxanthine]
[1]; IBMX 100 μmol/l in addition to isoprenaline
  spontaneous beating rate: 1.6±0.1 Hz

## [Ca+2] [calcium]
[2]; RPMI plus 0.8 mM CaCl (final free calcium 1.242 mmol/L) versus RPMI (0.424 mmol/L)
  maximal force and isoprenaline response of hEHM in RPMI with added calcium: lead to measurable maximal force and better responsiveness to isoprenalin
[3]; at 2.4 mmol/l calcium, n=17
  maximal twitch mean force: 130±13 μN
[3]; increasing extracellular calcium, n=17
  EC50: 800 ± 40 µM

## CC(C)NCC(O)c1ccc(O)c(O)c1 (stereo not shown) [isoprenaline, reference compound]
[1]; incubation with isoprenaline, hEHM at 10 days, baseline 0.8±0.05 Hz at 37° C.
  spontaneous beating frequency: 1.2±0.1 Hz
[3]; 1 μmol/l isoprenaline at 0.4 mmol/l extracellular calcium, n=12
  relaxation time: 113 ± 2.3 ms
[3]; 1 μmol/l isoprenaline at sub-EC50 extracellular calcium (0.4 mmol/l), n=12
  increase in force of contraction: 47±12%

## FGF-2: peptide growth factor (Peprotech, AF-100-18B)
[4]; [5]
  non-myocyte growth: supported non-myocyte growth
[4]; sideward scatter area
  cardiomyocyte cell size: increased cardiomyocyte cell size
[2]
  force-generation of hEHM: able to enhance force-generation

## IGF-1: peptide growth factor (Peprotech, AF-100-11)
[4]
  cell death (sub-G1 fraction): appeared to protect from cell death

## Neuregulin-1
[4]
  cell death (sub-G1 fraction): caused substantial cell death

## TGFβ1: peptide growth factor (Peprotech, 100-21)
[4]
  cardiomyocyte actinin expression (CM maturation): enhanced individual cardiomyocyte actinin expression
[2]; addition to serum-free medium from day 0 to 3 (5 ng/ml)
  formation of functional EHM: essential
[2]; prolonged treatment (culture day 0-10) versus day 0-3
  formation of functional EHM, prolonged treatment: did not yield an additional benefit

## VEGF
[4]
  cardiomyocyte actinin expression (CM maturation): enhanced individual cardiomyocyte actinin expression
[2]
  force-generation of hEHM: able to enhance force-generation

## fibronectin
[2]
  hEHM formation and function by matrix component: did not yield additional benefit

## laminin
[2]
  hEHM formation and function by matrix component: did not yield additional benefit

B1: CT-1: peptide growth factor (Cardiotrophin-1) (protein, UniProt Q16619 1-201, looked up)
Cardiotrophin-1: MSRREGSLEDPQTDSSVSLLPHLEAKIRQTHSLAHLLTKYAEQLLQEYVQLQGDPFGLPSFSPPRLPVAGLSAPAPSHAGLPVHERLRLDAAALAALPPLLDAVCRRQAELNPRAPRLLRRLEDAARQARALGAAVEALLAALGAANRGPRAEPPAATASAASATGVFPAKVLGLRVCGLYREWLSRTEGDLGQLLPGGSA
[4]
  cell death (sub-G1 fraction): caused substantial cell death

B2: TGFβ2: peptide growth factor (protein, UniProt P61812 303-414, looked up)
Transforming growth factor …: ALDAAYCFRNVQDNCCLRPLYIDFKRDLGWKWIHEPKGYNANFCAGACPYLWSSDTQHSRVLSLYNTINPEASASPCCVSQDLEPLTILYYIGKTPKIEQLSNMIVKSCKCS
modifications: Transforming growth factor beta-2
[4]; [5]
  overall effect in growth factor screen: had no beneficial effect

B3: PDGF-BB: peptide growth factor (protein, UniProt P01127 82-190, looked up)
Platelet-derived growth …: SLGSLTIAEPAMIAECKTRTEVFEISRRLIDRTNANFLVWPPCVEVQRCSGCCNNRNVQCRPTQVQLRPVQVRKIEIVRKKPIFKKATVTLEDHLACKCETVAAARPVT
[4]
  cell death (sub-G1 fraction): caused substantial cell death
